Like-named read-outs stand apart in the source and are kept apart here.
Columns and labels:
[1] = CBD plasma concentration after dosing; type: in vivo
Protocol: The dosing of CBD for a given range of activity is predictable, Table 1. […] This is a desirable group of activities to select. CBD at one micromolar is equivalent to 0.3 ng per ML and 10 micromolar is equivalent to 3 ng per ML. AUC for CBD ranges widely for different subjects but reportedly averages about 4 ng hour per ML. A single dose of 4 mg would provide an average 0.16 ng/ml concentration over 24 hours. […] Thus in 80 mg dose would provide an average of 10 micromolar over 24 hours. A single dose would produce a single large peak with return to baseline within about 10 hours, again this is variable between individuals. It is known that as frequency of dosing increases the plasma concentration will approach a steady-state or constant value between doses, eliminating the large peaks and valleys associated with infrequent doses. A reasonable dosing schedule might be 25 mg CBD three times daily to achieve 75 mg daily, about 9.4 micromolar average, at the high end of the 1-10 uM range. Similarly a 2.5 mg dose every eight hours would yield an approximately 1 micromolar average concentration.

neuroprotection = conditions: CBD at 1-10 uM; cited from earlier work
[2] = cited from earlier work
5HT-1a receptor = molecular target: T1, 5HT-1a receptor (Homo sapiens, UniProt P08908); conditions: CBD at >10 uM; cited from earlier work
T1 sequence (P08908 1-422): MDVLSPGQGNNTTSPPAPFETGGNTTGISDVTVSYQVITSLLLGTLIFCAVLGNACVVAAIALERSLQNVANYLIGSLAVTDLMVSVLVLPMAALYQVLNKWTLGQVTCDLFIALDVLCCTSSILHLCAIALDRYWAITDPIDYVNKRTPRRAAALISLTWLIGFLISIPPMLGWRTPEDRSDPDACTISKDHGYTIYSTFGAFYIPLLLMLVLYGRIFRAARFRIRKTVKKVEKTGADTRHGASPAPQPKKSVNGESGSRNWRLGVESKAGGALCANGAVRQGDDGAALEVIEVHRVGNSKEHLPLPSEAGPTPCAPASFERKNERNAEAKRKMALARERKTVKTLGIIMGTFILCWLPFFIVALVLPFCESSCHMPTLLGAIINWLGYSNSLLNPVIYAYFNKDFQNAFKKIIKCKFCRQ

Membrane = conditions: CBD at 1-10 uM; cited from earlier work
[3] = system: alpha1 adrenoreceptors and u-opioid receptors; conditions: CBD at 1-10 uM; cited from earlier work
Human keratinocyte = conditions: CBD at 1-10 uM; cited from earlier work
TRPV1 receptor = TRPV1 receptor (Homo sapiens, UniProt Q8NER1); conditions: CBD at 1-10 uM; cited from earlier work
[4] = cited from earlier work; remark: listed apart in the source
[5] = plant material in a 110° C. oven, Taschwer; cited from earlier work
[6] = two-13-year-olds in one study; cited from earlier work
onychomycosis = conditions: cited from earlier work
[7] = for time to full conversion (decarboxylation): thin layer, 400 deg F.
[8] = 110° C., FIG. 7, cited from earlier work
CB 2 receptor = CB 2 receptor (Homo sapiens, UniProt P34972); conditions: fold higher than THC; cited from earlier work
CB one receptor = CB one receptor (Homo sapiens, UniProt P21554); conditions: fold lower than THC; cited from earlier work
[9] = aqueous; cited from earlier work
[10] = cited from earlier work; remark: listed apart in the source
pain patients = conditions: initial studies in pain patients; cited from earlier work
[11] = 100° C. and 110° C., FIG. 6C, 6D, sum decreases significantly

Sequence of CB 2 receptor (P34972 whole entry): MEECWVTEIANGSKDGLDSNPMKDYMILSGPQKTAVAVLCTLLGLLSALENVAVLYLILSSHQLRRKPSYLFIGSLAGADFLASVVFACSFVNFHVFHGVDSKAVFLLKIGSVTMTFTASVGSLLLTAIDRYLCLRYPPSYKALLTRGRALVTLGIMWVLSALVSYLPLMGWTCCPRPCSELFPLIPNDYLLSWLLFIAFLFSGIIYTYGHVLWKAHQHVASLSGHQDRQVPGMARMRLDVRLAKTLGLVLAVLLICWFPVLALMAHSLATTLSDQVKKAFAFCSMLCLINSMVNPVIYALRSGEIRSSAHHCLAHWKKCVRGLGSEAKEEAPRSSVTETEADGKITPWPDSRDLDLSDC
Sequence of CB one receptor (P21554 whole entry): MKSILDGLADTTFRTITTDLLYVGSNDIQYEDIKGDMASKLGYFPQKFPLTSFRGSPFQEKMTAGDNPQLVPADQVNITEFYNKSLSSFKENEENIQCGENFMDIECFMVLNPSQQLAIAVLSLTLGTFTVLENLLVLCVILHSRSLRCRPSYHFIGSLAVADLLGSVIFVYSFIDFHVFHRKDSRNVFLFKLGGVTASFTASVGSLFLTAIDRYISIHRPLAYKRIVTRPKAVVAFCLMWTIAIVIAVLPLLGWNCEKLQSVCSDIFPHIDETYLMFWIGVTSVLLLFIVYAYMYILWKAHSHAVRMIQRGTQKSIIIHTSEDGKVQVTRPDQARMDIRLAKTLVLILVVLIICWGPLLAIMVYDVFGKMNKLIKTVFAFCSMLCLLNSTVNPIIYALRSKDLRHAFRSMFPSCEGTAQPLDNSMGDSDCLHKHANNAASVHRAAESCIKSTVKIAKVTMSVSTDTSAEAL
Sequence of TRPV1 receptor (Q8NER1 whole entry): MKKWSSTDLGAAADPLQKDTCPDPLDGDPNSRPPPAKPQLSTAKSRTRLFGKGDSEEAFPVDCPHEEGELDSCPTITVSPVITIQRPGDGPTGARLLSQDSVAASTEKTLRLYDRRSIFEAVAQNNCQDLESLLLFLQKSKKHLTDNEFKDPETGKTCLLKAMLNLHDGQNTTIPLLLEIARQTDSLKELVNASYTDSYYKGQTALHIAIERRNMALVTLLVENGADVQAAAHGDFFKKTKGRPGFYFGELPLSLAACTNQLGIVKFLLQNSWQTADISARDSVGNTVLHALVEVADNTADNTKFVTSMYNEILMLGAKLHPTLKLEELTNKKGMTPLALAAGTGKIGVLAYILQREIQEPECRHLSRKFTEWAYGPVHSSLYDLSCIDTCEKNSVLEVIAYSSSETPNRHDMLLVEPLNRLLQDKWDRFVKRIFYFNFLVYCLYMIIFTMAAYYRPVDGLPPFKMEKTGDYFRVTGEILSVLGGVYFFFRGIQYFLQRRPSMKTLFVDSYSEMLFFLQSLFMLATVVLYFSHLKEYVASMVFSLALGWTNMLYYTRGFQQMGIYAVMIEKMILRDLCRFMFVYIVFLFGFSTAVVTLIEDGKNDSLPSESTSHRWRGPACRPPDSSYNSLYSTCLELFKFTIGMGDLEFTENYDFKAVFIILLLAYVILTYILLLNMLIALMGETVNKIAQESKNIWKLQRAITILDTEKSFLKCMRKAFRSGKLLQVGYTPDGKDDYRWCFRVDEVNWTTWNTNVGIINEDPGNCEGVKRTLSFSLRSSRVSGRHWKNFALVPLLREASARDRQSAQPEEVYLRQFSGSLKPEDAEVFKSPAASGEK

## C=C(C)[C@@H]1CCC(C)=C[C@H]1c1c(O)cc(CCCCC)cc1O [CBD, cannabidiol]
[1]; 2.5 mg dose every eight hours
  average concentration: approximately 1 micromolar
[1]; 25 mg CBD three times daily, 75 mg daily
  average concentration: about 9.4 micromolar
[1]; 80 mg dose
  average concentration over 24 hours: 10 µM
[1]; 8 milligrams dose
  average concentration over 24 hours: 0.32 ng per ML
  average concentration over 24 hours, as molarity: about one micromolar
[1]; single dose of 4 mg
  average concentration over 24 hours: 0.16 ng/mL
neuroprotection
  action induced by CBD: Increased or activated signs of neuroprotection: Signs of neuroprotection
[2]; ranges widely for different subjects
  AUC for CBD, average: about 4 ng hour per ML
[2]; single dose, variable between individuals
  return to baseline after a single dose: ≤ 10 h
5HT-1a receptor
  action induced by CBD: Ativated 5HT-1a receptor: 5HT-1a receptor
Membrane
  action induced by CBD: Increased or activated Membrane stability: Membrane stability
[3]
  action induced by CBD: Decreased activation of alpha1 adrenoreceptors and u-opioid receptors: Activation of alpha1 adrenoreceptors and u-opioid
Human keratinocyte
  action induced by CBD: Decreased human keratinocyte proliferation: Human keratinocyte proliferation
TRPV1 receptor
  action induced by CBD: Increased or activated TRPV1 receptor: TRPV1 receptor
[4]; 80° C. and 90° C., FIG. 6A, 6B
  degradation judged from sum of CBDA and CBD concentration: no degradation
[4]; [11]
  degradation judged from sum of CBDA and CBD concentration: loss
[4]; 110° C., cannabis oil in an open vial in an oven, FIG. 6D
  time to peak CBD: 90 min
[4]; 120° open reactor, FIG. 6E
  loss of converted CBD compared to the closed reactor at the same temperature: 45-55%
[5]
  time to peak CBD: 135 min

## CCCCCc1cc(O)c2c(c1)OC(C)(C)[C@@H]1CC=C(C)C[C@@H]21 [Delta 8 THC]
[6]
  psychoactive effect: no psychoactive effect

## C=C1CC[C@H]2O[C@]2(C)CC[C@@H]2[C@@H]1CC2(C)C [Caryophyllene Oxide]
onychomycosis; at 8% concentration
  time in which effective in onychomycosis: 15 days
onychomycosis; in vivo
  clinical onychomycosis efficacy versus reference drugs: efficacy similar to cyclopiroxolamine and sulconazole

## CCCCCc1cc2c(c(O)c1C(=O)O)[C@@H]1C=C(C)CC[C@H]1C(C)(C)O2 [THCA]
[7]
  time to full conversion (decarboxylation): fully converted in under a minute

## CCCCCc1cc(O)c(C/C=C(\C)CCC=C(C)C)c(O)c1 [CBG]
[8]; in the time decarboxylation is maximized
  loss of total CBG: 50%

## CCCCCc1cc(O)c2c(c1)OC(C)(C)c1ccc(C)cc1-2 [CBN]
CB 2 receptor
  affinity for CB 2 receptor, higher than THC: 3 fold
CB one receptor
  affinity for CB one receptor, lower than THC: 2 fold

## CCCCCc1cc(O)c2c(c1)OC(C)(C)[C@@H]1CCC(C)=C[C@@H]21 [THC]
[7]; 20 min
  THC remaining: only a trace
[9]
  concentration at which THC saturates in cannabis tea: about 10 mg/L
[10]; relative to hydrocortisone
  anti-inflammatory activity relative to hydrocortisone: two times
[10]; times the activity of aspirin
  anti-inflammatory activity relative to aspirin: 20 times
Pain patients
  analgesic effect in pain patients: provided analgesic effects
[4]; 120° C. closed reactor
  loss of total THC (THC A+ THC) from the starting condition: approximately 10%
[4]; open reactor, 100° C. (212° F.), FIG. 6C
  loss of THC relative to 120° C. closed reactor: about 28%
[4]; open reactor, 110° C. (230° F.), FIG. 6d
  loss compared to that maximally achieved at 120° C. in the closed reactor: about 28%

## CCCCCc1cc(O)c(C/C=C(\C)CCC=C(C)C)c(O)c1C(=O)O [CBGA]
[8]
  consumption of CBGA: complete consumption

## C=C(C)[C@@H]1CCC(C)=C[C@H]1c1c(O)cc(CCCCC)c(C(=O)O)c1O [CBDA]
[7]
  time to full conversion (decarboxylation): fully converted in under a minute
[4]; 80° C. and 90° C., FIG. 6A, 6B
  degradation judged from sum of CBDA and CBD concentration: no degradation
[4]; [11]
  degradation judged from sum of CBDA and CBD concentration: loss
[4]; 120° C. open reactor, FIG. 6E, incomplete conversion to CBD
  loss of CBDA: rapid loss

Reference: patent US11254633B2, “Cannabis thin layer decarboxylation” (priority 2018, dated 2022)
